Measurements published in US10865435B2, “Method of screening antibacterial compounds as inhibitor of Mfd” (INSTITUT NATIONAL DE LA RECHERCHE AGRONOMIQUE, priority 2016, dated 2020).

Tested on: Bacillus cereus strain Bc 407
Assay: Molecule capacity to inhibit bacterial growth in the presence of artificially produced nitric oxide (cfu plating)
Assay type: cell-based
Protocol: Bacteria (Bacillus cereus strain Bc 407) were grown in LB medium until mid exponential growth phase at 37° C. with shaking. Cultures were then diluted to 10^4 cfu/ml in PBS (Phosphate Buffered Saline, Sigma). The molecules to be tested (potential Mfd inhibitors) are added at a concentration of 0 to 1 mM to the bacteria and the bacteria+inhibitors are incubated at room temperature for 1 h without agitation.
Bacteria were then exposed directly to chemically generated NO+ in a cell-free system as described by Miyagi et al. (Miyagi et al., 1997) with modifications. Briefly, 10^4 bacterial cfu (+various concentrations of potential Mfd inhibitors) are incubated in RPMI-1640 medium (Invitrogen) at acidic pH (pH 5.4) either in the absence or in the presence of 1.5 mM sodium nitrite (Walco Pure Chemical Industries Ltd) at 37° C. for 1 h under shaking; under these acidic conditions, NO+ is generated from the sodium nitrite by a chemical reaction (Miyagi et al., 1997).
The bacteria are harvested and plated on agar plates to evaluate bacterial survival. The cfu obtained without nitric oxide stress gives the toxicity value whereas the cfu obtained following nitric oxide stress gives the inhibitor efficacy value. Using this cell free assay, the inhibitor concentration required to decrease by 50% the survival rate of the bacteria (IC50) in the presence of nitric oxide stress compared to untreated bacteria is calculated using the GraphPad PRISM software (version 6.0, GraphPad Software, San Diego, Calif.) with non-linear regression.

Which results are given for CN1CC(=O)N2[C@H](c3ccc4c(c3)OCO4)c3[nH]c4ccccc4c3C[C@@H]2C1=O [tadalafil, (6R-trans)-6-(1,3-benzodioxol-5-yl)-2,3,6,7,12,12a-hexahydro-2-methyl-pyrazino[1′,2′:1,6]pyrido[3,4-b]indole-1,4-dione]?
IC50 (1.5 mM sodium nitrite, pH 5.4, 37° C., 1 h, mean of two experiments, read-out: IC50 (concentration required to decrease by 50% the survival rate of the bacteria in the presence of nitric oxide stress compared to untreated bacteria)): 98.7 µM; activity on B. cereus survival with nitric oxide (NO) stress (with NO stress, at 100 μM): activity; activity on B. cereus survival without stress (toxicity) (without nitric oxide stress, until 100 μM): weak activity
